Experimental data taken from patent publication US20220373536A1, “HIGH-CONTENT ANALYSIS METHOD” (priority 2019, published 2022).

System: plasma cells (target cells, CD138+; U-266 or NCI-H929)
Assay: ICNP-based ADCC assay in microwells, NK cells against plasma cells / U-266 cells under anti-CD38 stimulation, time-lapse PI readout
Assay type: cell-based
Description: EDTA bone marrow samples were collected from 13 patients with multiple myeloma (MM, 7 de novo and 6 relapses). 8 primary samples were processed through density centrifugation (Ficoll-Pacque; Merck) in order to obtain mononuclear cells while preserving the original composition of the effector (E) and target (T) cells, i.e., NK and plasma cells, respectively. 5 samples were processed with CD138 Antibody coupled to magnetic beads (Miltenyi Biotec) to obtain a population of white blood cells (WBC), a population which comprises NK cells and is depleted of plasma cells.
The resulting cells were co-cultured with U-266 or NCI-H929 cell lines as target cells. […]
The cells from primary or co-culture samples were seeded in 96-well plates, with a final concentration of 2×10^5 cells/well, with variable E:T ratios. […] Each experiment was analyzed by time lapse in fluorescence microscopy for up to 12 hours.
The images for said plurality of microwells are then acquired and, with a detection algorithm, the areas of interest, where each area of interest corresponds to a single cell, for each of said areas of interest, properties which comprise localization, the intensity of certain markers in each fluorescence channel, the cell area, the position of the center of gravity and the morphology are then measured. […]

Question: For Daratumumab, which “plasma cell death with respect to plasma cell - NK cell distance” value (10 μg/mL, 1,200 microwells, plasma cells in contact with NK cells, decreases as distance increases, FIG. 11E) is on record?
Answer: maximum

Question: What about the “death rate of the plasma cells belonging to pattern 2 (spontaneous death or direct effect of the antibody)” value (10 μg/mL, pattern 2 microwells (only plasma cells, no NK)) of the same substance?
Answer: 10.86%
